Assay results: paper PMC9006954, “Computer-Based Immunoinformatic Analysis to Predict Candidate T-Cell Epitopes for SARS-CoV-2 Vaccine Design” (Frontiers in Immunology, 2022)
Where no end group is shown, it is not given here.

Target: T1, HLA-A*11:01 protein (Homo sapiens, UniProt P04439, A114D/D185E/E176A/F33Y/L180Q/S129P/T187R)
T1 construct: biotin (biotinylated)
Assay: Bio-Layer Interferometry (BLI) affinity test, Octet R8
Details: Octet R8, SSA sensors, peptides 100-3.125 µM in PBST (PBS+0.02%Tween20+1% DMSO), balance, binding, dissociation 60 s each

Sequence	KD	KD (listed as 13[…]21)	Kd [µM]
SQCVNFTTR	Non-binding	not detected	–
KCYGLSPTK	–	–	23
GLSPTKLNDL	–	–	319
FSTFKCYGL	–	–	5.95
